Laboratory results taken from US9233978B2, “6-fused heteroaryldihydropyrimidines for the treatment and prophylaxis of hepatitis B virus infection” (Hoffmann-La Roche Inc., priority 2014, dated 2016).
In brackets after ≈: the same amount, converted by molar mass. Like-named read-outs stand apart in the source and are kept apart here.

Assays:
Lysa solubility = assay type: physicochemical; conditions: 0.05 M phosphate buffer (pH 6.5); for solubility thermodynamic: phosphate buffer, pH 6.5, aqueous buffer, thermodynamic from solid
Summary of the method: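 Duplicate samples dried from 10 mM DMSO stocks, taken up in 0.05 M phosphate buffer pH 6.5, stirred 1 h, shaken 2 h and left overnight. Filtrate and 1/10 dilution quantified by direct UV or HPLC-UV, in μg/mL; above 80% of the calculated maximum, reported as greater than that value.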

HepDE19 cells = assay: Cytotoxicity in HepDE19 cells (CCK-8) and selectivity index; assay type: cell-based; conditions: CC50 (HepDE19) value / EC50 (HepG2.2.15) value
Summary of the method: (§1)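 HepDE19 cells (DMEM-F12, 10% FBS) were treated with compound for five days, then given CCK-8 for 2 h at 37 °C and read at OD450 and OD630. CC50 is the concentration killing 50% of host cells. Selectivity index is CC50/EC50.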

[1] = as above; assay type: cell-based; conditions: human, HepDE19 cells; CCK-8 cell viability; five days after treatment
Summary of the method: as §1

HBV = assay: Anti-HBV activity in vitro, HepG2.2.15 cells, extracellular HBV DNA by qPCR; assay type: cell-based; conditions: HepG2.2.15 cells, HBV replication inhibited by 50%, extracellular HBV DNA by qPCR, five days after compound treatment, read-out: EC50
Summary of the method: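 Extracellular HBV DNA in culture supernatant was measured by qPCR after nucleic acid extraction. The supernatant came from constitutively replicating HepG2.2.15 cells exposed for five days to half-log-diluted compounds, with DMSO at 0.5% final. Cells had been plated overnight at 37 °C beforehand.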

CYP3A4 = assay: Cytochrome P450 induction screening assay, mRNA induction in human cryopreserved hepatocytes; assay type: in vitro ADME; conditions: CYP3A4 mRNA relative induction, 24 hours, test compound up to 10 μM
Method: Human cryopreserved hepatocytes (Life Technologies, Carlsbad, USA) were thawed and cultured in collagen I coated 96-well plates with a density of 52,000 cells/well. After attachment, medium was changed and cells were pre-cultured overnight in hepatocyte maintenance medium (HMM; Lonza, Switzerland).
Test compounds were dosed to the cells next morning at an indicated concentration (up to 10 μM) in HMM culture media containing gentamycin and a constant 0.1% DMSO. Similarly, dilutions of the positive inducer compounds omeprazole (prototypical inducer of human CYP1A2; final concentrations: 1 and 10 μM), phenobarbital (prototypical inducer of human CYP2B6; final concentrations: 100 and 1000 μM) and rifampicin (prototypical inducer of human CYP3A4; final concentrations: 1 and 10 μM) were prepared from 1000 fold DMSO stock solutions in HMM containing gentamycin. Medium change was then performed and cells were exposed for 24 hours to test compounds, positive inducer compounds, or vehicle (0.1% DMSO), respectively.
At the end of the compound exposure period, medium was removed and cells lysed using 100 μL/well MagNA Pure LC RNA isolation tissue lysis buffer (Roche Diagnostics AG, Rotkreuz, Switzerland). Plates were then sealed and frozen at −80° C. until further workup.
mRNA isolation was performed using the MagNA Pure 96 system (Roche Diagnostics AG, Rotkreuz, Switzerland) and the respective cellular RNA large volume kit (Roche Diagnostics AG, Rotkreuz, Switzerland) from thawed samples diluted 1:1 with PBS. The volume of the cell lysis and an elution volume of 100 μL were used. 20 μl of the resulting mRNA suspension was then used for reverse transcription using 20 μl of the transcript or first stand cDNA synthesis kit (Roche prime Supply, Mannheim, Germany). The resulting cDNA was diluted with 40 μl of H2O before using for qRT-PCR. qRT-PCR was performed by using the forward and the reverse primer, the corresponding UPL (all from Microsynth, Balgach, Switzerland) and the Taqman Fast advanced master mix (Applied Biosystems), on an ABI 7900 machine (Applied Biosystems).
qRT-PCR Ct-values for the respective P450s were put into relation to the Ct-value of RN18S1 (microsynth, Balgach, Switzerland) of the same sample. Doing so, a respective Δct-value was calculated. Using the average of all Δct-values for the vehicle control samples, a ΔΔct-value was calculated for each sample (ΔΔct-value(sample)=Δct-value(sample)−average of Δct-value of all vehicle controls). The fold induction of the respective sample was calculated as 2^(−ΔΔct). The individual fold induction values were then averaged per treatment condition (usually n=3 biological replicates).
Relative induction values to the respective positive inducer compound condition (10 μM omeprazole for CYP1A2; 1000 μM Phenobarbital for CYP2B6; 10 μM rifampicin for CYP3A4) were then calculated from the fold induction values as follows: Relative induction (%)=100×(T−V)/(P−V)

[2] = Human microsomal metabolic stability; assay type: in vitro ADME; conditions: human microsomes 0.5 mg/mL, 1 μM test compound, NADPH, 37° C., pH 7.4, 0-30 minutes
Summary of the method: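 1 μM compound with 0.5 mg/mL human liver microsomal protein in 100 mM phosphate pH 7.4 at 37° C, started with 1 mM NADPH or a NADPH-regenerating system. Sampled at 0–30 min, quenched in cold methanol with tolbutamide internal standard; remaining parent quantified by LC-MS/MS.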

[3] = Hepatitis B virus, HepG2.2.15, 120 h

CCOC(=O)C1=C(CN2CCN3C(=O)N(CC4(C(=O)O)CC4)C[C@@H]3C2)NC(c2nccs2)=N[C@H]1c1cccc(F)c1Cl [Example 36, 1-[[(8aS)-7-[[(4R)-4-(2-chloro-3-fluoro-phenyl)-5-ethoxycarbonyl-2-thiazol-2-yl-1,4-dihydropyrimidin-6-yl]methyl]-3-oxo-5,6,8,8a-tetrahydro-1H-imidazo[1,5-a]pyrazin-2-yl]methyl]cyclopropanecarboxylic acid]
solubility thermodynamic (Lysa solubility): 485 µg/mL (≈ 786 µM) | Selectivity index (CC50/EC50) (HepDE19 cells): >18181 | CC50 at 5 days [1]: > 100000 nM | EC50 (HBV; [3]): 6 nM | % of Positive control (10 μM Rifampicin) (CYP3A4): 6% | Human Microsomal Clearance [2]: 4.4 mL/min/kg

CCOC(=O)C1=C(CN2CCN3C(=O)N(C(C)(C)CC(=O)O)C[C@@H]3C2)NC(c2nccs2)=N[C@H]1c1cccc(F)c1Cl [Example 34, 3-[(8aS)-7-[[(4R)-4-(2-chloro-3-fluoro-phenyl)-5-ethoxycarbonyl-2-thiazol-2-yl-1,4-dihydropyrimidin-6-yl]methyl]-3-oxo-5,6,8,8a-tetrahydro-1H-imidazo[1,5-a]pyrazin-2-yl]-3-methyl-butanoic acid]
solubility thermodynamic (Lysa solubility): 326 µg/mL (≈ 527 µM) | Selectivity index (CC50/EC50) (HepDE19 cells): 10655 | CC50 at 5 days [1]: 81000 nM | EC50 (HBV; [3]): 8 nM | % of Positive control (10 μM Rifampicin) (CYP3A4): 0.2% | Human Microsomal Clearance [2]: 1.8 mL/min/kg

COC(=O)C1=C(CN2CCN3C(=O)N(CC4(C(=O)O)CC4)C[C@@H]3C2)NC(c2nccs2)=N[C@H]1c1ccc(F)c(F)c1C [Example 38, 1-[[(8aS)-7-[[(4S)-4-(3,4-difluoro-2-methyl-phenyl)-5-methoxycarbonyl-2-thiazol-2-yl-1,4-dihydropyrimidin-6-yl]methyl]-3-oxo-5,6,8,8a-tetrahydro-1H-imidazo[1,5-a]pyrazin-2-yl]methyl]cyclopropanecarboxylic acid]
solubility thermodynamic (Lysa solubility): 627 µg/mL (≈ 1040 µM) | Selectivity index (CC50/EC50) (HepDE19 cells): 21276 | CC50 at 5 days [1]: 100000 nM | EC50 (HBV; [3]): 5 nM | % of Positive control (10 μM Rifampicin) (CYP3A4): 0.2% | Human Microsomal Clearance [2]: 2.0 mL/min/kg

COC(=O)C1=C(CN2CCN3C(=O)N(CCC(C)(C)C(=O)O)C[C@@H]3C2)NC(c2nccs2)=N[C@H]1c1ccc(F)cc1Cl [Example 54, 4-[(8aS)-7-[[(4R)-4-(2-chloro-4-fluoro-phenyl)-5-methoxycarbonyl-2-thiazol-2-yl-1,4-dihydropyrimidin-6-yl]methyl]-3-oxo-5,6,8,8a-tetrahydro-1H-imidazo[1,5-a]pyrazin-2-yl]-2,2-dimethyl-butanoic acid]
solubility thermodynamic (Lysa solubility): 387 µg/mL (≈ 625 µM) | Selectivity index (CC50/EC50) (HepDE19 cells): >12500 | CC50 at 5 days [1]: > 100000 nM | EC50 (HBV; [3]): 8 nM | % of Positive control (10 μM Rifampicin) (CYP3A4): 0% | Human Microsomal Clearance [2]: 4.6 mL/min/kg

CCOC(=O)C1=C(CN2CCN3C(=O)N(CC(C)(C)C(=O)O)C[C@@H]3C2)NC(c2nccs2)=N[C@H]1c1cccc(F)c1C [Example 76, 3-[(8aS)-7-[[(4S)-5-ethoxycarbonyl-4-(3-fluoro-2-methyl-phenyl)-2-thiazol-2-yl-1,4-dihydropyrimidin-6-yl]methyl]-3-oxo-5,6,8,8a-tetrahydro-1H-imidazo[1,5-a]pyrazin-2-yl]-2,2-dimethyl-propanoic acid]
solubility thermodynamic (Lysa solubility): 565 µg/mL (≈ 944 µM) | Selectivity index (CC50/EC50) (HepDE19 cells): >14286 | CC50 at 5 days [1]: > 100000 nM | EC50 (HBV; [3]): 7 nM | % of Positive control (10 μM Rifampicin) (CYP3A4): 1.3% | Human Microsomal Clearance [2]: 0.8 mL/min/kg

COC(=O)C1=C(CN2CCN3C(=O)N(CC(C)(C)C(=O)O)C[C@@H]3C2)NC(c2nccs2)=N[C@H]1c1ccc(F)cc1Cl [Example 42, 3-[(8aS)-7-[[(4R)-4-(2-chloro-4-fluoro-phenyl)-5-methoxycarbonyl-2-thiazol-2-yl-1,4-dihydropyrimidin-6-yl]methyl]-3-oxo-5,6,8,8a-tetrahydro-1H-imidazo[1,5-a]pyrazin-2-yl]-2,2-dimethyl-propanoic acid]
solubility thermodynamic (Lysa solubility): > 785 µg/mL | Selectivity index (CC50/EC50) (HepDE19 cells): >15625 | CC50 at 5 days [1]: > 100000 nM | EC50 (HBV; [3]): 6 nM | % of Positive control (10 μM Rifampicin) (CYP3A4): 0.6% | Human Microsomal Clearance [2]: 2.0 mL/min/kg

CCOC(=O)C1=C(CN2CCN3C(=O)N(CC(C)(C)C(=O)O)C[C@@H]3C2)NC(c2nccs2)=N[C@H]1c1cccc(F)c1Cl [Example 19, 3-[(8aS)-7-[[(4R)-4-(2-chloro-3-fluoro-phenyl)-5-ethoxycarbonyl-2-thiazol-2-yl-1,4-dihydropyrimidin-6-yl]methyl]-3-oxo-5,6,8,8a-tetrahydro-1H-imidazo[1,5-a]pyrazin-2-yl]-2,2-dimethyl-propanoic acid]
solubility thermodynamic (Lysa solubility): > 727 µg/mL | Selectivity index (CC50/EC50) (HepDE19 cells): >30303 | CC50 at 5 days [1]: > 100000 nM | EC50 (HBV; [3]): 3 nM | % of Positive control (10 μM Rifampicin) (CYP3A4): 1% | Human Microsomal Clearance [2]: 0.4 mL/min/kg

CCOC(=O)C1=C(CN2CCN3C(=O)N(CC(C)C(=O)O)C[C@@H]3C2)NC(c2nccs2)=N[C@H]1c1cccc(F)c1Cl (stereo partly drawn) [Example 21, 3-[(8aS)-7-[[(4R)-4-(2-chloro-3-fluoro-phenyl)-5-ethoxycarbonyl-2-thiazol-2-yl-1,4-dihydropyrimidin-6-yl]methyl]-3-oxo-5,6,8,8a-tetrahydro-1H-imidazo[1,5-a]pyrazin-2-yl]-2-methyl-propanoic acid]
solubility thermodynamic (Lysa solubility): > 786 µg/mL | Selectivity index (CC50/EC50) (HepDE19 cells): >6211 | CC50 at 5 days [1]: > 100000 nM | EC50 (HBV; [3]): 16 nM | % of Positive control (10 μM Rifampicin) (CYP3A4): 2.4% | Human Microsomal Clearance [2]: 2.7 mL/min/kg

COC(=O)C1=C(CN2CCN3C(=O)N(C4CCC(C(=O)O)CC4)C[C@@H]3C2)NC(c2nccs2)=N[C@H]1c1ccc(F)cc1Cl (stereo partly drawn) [Example 73, 4-[(8aS)-7-[[(4R)-4-(2-chloro-4-fluoro-phenyl)-5-methoxycarbonyl-2-thiazol-2-yl-1,4-dihydropyrimidin-6-yl]methyl]-3-oxo-5,6,8,8a-tetrahydro-1H-imidazo[1,5-a]pyrazin-2-yl]cyclohexanecarboxylic acid]
Lysa (Lysa solubility): 564 µg/mL | Selectivity index (CC50/EC50) (HepDE19 cells): 7778 | CC50 at 5 days [1]: 70000 nM | EC50 (HBV): 9 nM | % of Positive control (10 μM Rifampicin) (CYP3A4): 0% | Human Microsomal Clearance [2]: 8.1 mL/min/kg
